Assay results reported in patent publication US4966900A, “Cephalosporin β-lactam compound and medicinal composition” (priority 1986, dated 1990).
Converted amounts (≈) assume the structure as drawn. Structures can show the parent of a compound that is named as a salt.

What was measured:
Assay in all cases: MIC
C. freundii 1R527 = conditions: Citrobacter freundii, 1R527
P. aeruginosa GN10362 = conditions: Pseudomonas aeruginosa, GN10362
C. freundii 1U589 = conditions: Citrobacter freundii, 1U589
P. cepacia OF189 = conditions: Burkholderia cepacia, OF189, P. cepacia OF189; Table 5
E. cloacae 5D52-2 = conditions: Enterobacter cloacae, 5D522
E. coli GN5482 = conditions: Escherichia coli, GN5482, E. coli GN5482; Table 5
E. coli ML4707 = conditions: Escherichia coli, ML4707, E. coli ML4707; Table 5
K. pneumoniae 4at521 = conditions: Klebsiella pneumoniae, 4AT521
P. maltophilia OF247 = conditions: Stenotrophomonas maltophilia, Table 5
P. vulgaris GN7919 = conditions: Proteus vulgaris, GN7919
P. aeruginosa 4au542 = conditions: Pseudomonas aeruginosa, 4AU542, P. aeruginosa 4au542; Table 5
S. aureus Smith = conditions: Staphylococcus aureus, Table 5
P. aeruginosa 5D58-1 = conditions: Pseudomonas aeruginosa, 5D581, P. aeruginosa 5D58-1; Table 5
C. freundii 1R523 = conditions: Citrobacter freundii, 1R523
C. freundii GN7391 = conditions: Citrobacter freundii, GN7391, C. freundii GN7391
C. freundii 1R524 = conditions: Citrobacter freundii, 1R524
C. freundii 1U692 = conditions: Citrobacter freundii, 1U692
E. colacae GN7471 = conditions: Table 5
S. aureus IAA498 = assay type: cell-based; conditions: Staphylococcus aureus, Table 5
Experimental: (§1) The minimum inhibition concentrations (MIC) of the compounds obtained in the respective examples described above were measured according to the standard method of Japanese Chemotherapy Association.

E. cloacae 1Y247 = assay type: cell-based; conditions: Enterobacter cloacae, Table 6, read-out: MIC
Experimental: as §1

S. marcescens GN10857 = conditions: Serratia marcescens, GN10857, S. marcescens GN10857; Table 5
E. cloacae 908RN = conditions: Enterobacter cloacae
E. cloacae 1V25 = conditions: Enterobacter cloacae
C. freundii 5D60-1 = conditions: Citrobacter freundii, 5D601
E. cloacae 5D63-2 = conditions: Enterobacter cloacae, 5D632
C. freundii 1R526 = conditions: Citrobacter freundii, 1R526

| SMILES | MIC (C. freundii 1R527) | MIC (P. aeruginosa GN10362) | MIC (C. freundii 1U589) | MIC (P. cepacia OF189) | MIC (E. cloacae 5D52-2) | MIC (E. coli GN5482) | MIC (E. coli ML4707) | MIC (K. pneumoniae 4at521) | MIC (P. maltophilia OF247) | MIC (P. vulgaris GN7919) | MIC (P. aeruginosa 4au542) | MIC (S. aureus Smith) | MIC (P. aeruginosa 5D58-1) | MIC (C. freundii 1R523) | MIC (C. freundii GN7391; Table 5) | MIC (C. freundii GN7391; Table 6) | MIC (C. freundii 1R524) | MIC (C. freundii 1U692) | MIC (E. colacae GN7471) | MIC (S. aureus IAA498) | other results |
| --- | --- | --- | --- | --- | --- | --- | --- | --- | --- | --- | --- | --- | --- | --- | --- | --- | --- | --- | --- | --- | --- |
| CC(C)(ON=C(C(=O)NC1C(=O)N2C(C(=O)O)=C(CSc3c4c(nc5ncnn35)CCC4)CSC12)c1csc(N)n1)C(=O)NNC(=O)c1ccc(O)c(O)c1 (centres unmarked) [Example 36] | 0.2 µg/mL (≈ 0.247 µM) | 0.2 µg/mL (≈ 0.247 µM) | 0.39 µg/mL (≈ 0.482 µM) | 0.012 µg/mL (≈ 0.0148 µM) | 0.2 µg/mL (≈ 0.247 µM) | 0.012 µg/mL (≈ 0.0148 µM) | 0.012 µg/mL (≈ 0.0148 µM) | 0.012 µg/mL (≈ 0.0148 µM) | 0.2 µg/mL (≈ 0.247 µM) | 0.78 µg/mL (≈ 0.963 µM) | 0.39 µg/mL (≈ 0.482 µM) | 6.25 µg/mL (≈ 7.72 µM) | 0.78 µg/mL (≈ 0.963 µM) | 0.2 µg/mL (≈ 0.247 µM) | 3.13 µg/mL (≈ 3.86 µM) | 6.25 µg/mL (≈ 7.72 µM) | 0.2 µg/mL (≈ 0.247 µM) | 0.39 µg/mL (≈ 0.482 µM) | 3.13 µg/mL (≈ 3.86 µM) | 12.5 µg/mL (≈ 15.4 µM) | MIC (E. cloacae 1Y247): 12.5 µg/mL (≈ 15.4 µM); MIC (S. marcescens GN10857): 0.39 µg/mL (≈ 0.482 µM); MIC (E. cloacae 908RN; E. cloacae 908RN, Table 6): 12.5 µg/mL (≈ 15.4 µM); MIC (E. cloacae 908RN; E. colacae 908RN, Table 5): 3.13 µg/mL (≈ 3.86 µM); MIC (E. cloacae 1V25): 12.5 µg/mL (≈ 15.4 µM); MIC (C. freundii 5D60-1): 1.56 µg/mL (≈ 1.93 µM); MIC (E. cloacae 5D63-2): 0.39 µg/mL (≈ 0.482 µM); MIC (C. freundii 1R526): 0.2 µg/mL (≈ 0.247 µM) |
| Cc1nc2c(C(=O)O)cnn2c(SCC2=C(C(=O)O)N3C(=O)C(NC(=O)C(=NOC(C)(C)C(=O)NNC(=O)c4ccc(O)c(O)c4)c4csc(N)n4)C3SC2)c1C (centres unmarked) [Example 27, 7-{2-[2-Amino-1,3-thiazol-4-yl]-2-[1-(3-(3,4-dihydroxybenzoyl)carbazoyl)-1-methylethoxyimino]acetamide}-3-[(3-carboxy-5,6-dimethylpyrazolo[1,5-a]pyrimidin-7-yl)thiomethyl]-3-cephem-4-carboxylic acid.hydrochloride] | 0.1 µg/mL | 0.05 µg/mL | 0.39 µg/mL | 0.012 µg/mL | 0.1 µg/mL | < 0.006 µg/mL | 0.012 µg/mL | < 0.006 µg/mL | 0.2 µg/mL | 0.39 µg/mL | 0.2 µg/mL | 25 µg/mL | 0.2 µg/mL | 0.2 µg/mL | 0.78 µg/mL | 0.78 µg/mL | 0.1 µg/mL | 0.2 µg/mL | 0.78 µg/mL | 50 µg/mL | MIC (E. cloacae 1Y247): 0.78 µg/mL; MIC (S. marcescens GN10857): 0.1 µg/mL; MIC (E. cloacae 908RN; E. cloacae 908RN, Table 6): 0.78 µg/mL; MIC (E. cloacae 908RN; E. colacae 908RN, Table 5): 0.39 µg/mL; MIC (E. cloacae 1V25): 0.39 µg/mL; MIC (C. freundii 5D60-1): 6.25 µg/mL; MIC (E. cloacae 5D63-2): 0.2 µg/mL; MIC (C. freundii 1R526): 0.1 µg/mL |
| CC(C)(ON=C(C(=O)NC1C(=O)N2C(C(=O)O)=C(CSc3c4c(nc5nc(C(=O)O)nn35)CCC4)CSC12)c1csc(N)n1)C(=O)NNC(=O)c1ccc(O)c(O)c1 (centres unmarked) [Example 33, 7-{2-[2-amino-1,3-thiazol-4-yl]-2-[1-(3-(3,4-dihydroxybenzoyl)carbazoyl)-1-methylethoxyimino]acetamide}-3-[(2-carboxy-6,7-dihydro-5H-cyclopenta[f]-s-triazolo[1,5-a]pyrimidin-8-yl)thiomethyl]-3-cephem-4-carboxylic acid.hydrochloride] | 0.025 µg/mL | 0.05 µg/mL | 0.05 µg/mL | < 0.006 µg/mL | 0.1 µg/mL | < 0.006 µg/mL | < 0.006 µg/mL | < 0.006 µg/mL | 0.1 µg/mL | 0.2 µg/mL | 0.2 µg/mL | 25 µg/mL | 0.2 µg/mL | 0.05 µg/mL | 0.39 µg/mL | 0.78 µg/mL | 0.025 µg/mL | 0.05 µg/mL | 0.39 µg/mL | 25 µg/mL | MIC (E. cloacae 1Y247): 1.56 µg/mL; MIC (S. marcescens GN10857): 0.05 µg/mL; MIC (E. cloacae 908RN; E. cloacae 908RN, Table 6): 0.2 µg/mL; MIC (E. cloacae 908RN; E. colacae 908RN, Table 5): 0.2 µg/mL; MIC (E. cloacae 1V25): 1.56 µg/mL; MIC (C. freundii 5D60-1): 0.2 µg/mL; MIC (E. cloacae 5D63-2): 0.1 µg/mL; MIC (C. freundii 1R526): 0.025 µg/mL |
| Cc1nc2nc(C(=O)O)cc(SCC3=C(C(=O)O)N4C(=O)C(NC(=O)C(=NOC(C)(C)C(=O)NNC(=O)c5ccc(O)c(O)c5)c5csc(N)n5)C4SC3)n2n1 (centres unmarked) [Example 37] | 0.1 µg/mL (≈ 0.121 µM) | 0.05 µg/mL (≈ 0.0604 µM) | 0.2 µg/mL (≈ 0.242 µM) | < 0.006 µg/mL | 0.1 µg/mL (≈ 0.121 µM) | 0.012 µg/mL (≈ 0.0145 µM) | 0.012 µg/mL (≈ 0.0145 µM) | < 0.006 µg/mL | 0.39 µg/mL (≈ 0.471 µM) | 0.78 µg/mL (≈ 0.942 µM) | 0.2 µg/mL (≈ 0.242 µM) | 25 µg/mL (≈ 30.2 µM) | 0.78 µg/mL (≈ 0.942 µM) | 0.1 µg/mL (≈ 0.121 µM) | 1.56 µg/mL (≈ 1.88 µM) | 3.13 µg/mL (≈ 3.78 µM) | 0.1 µg/mL (≈ 0.121 µM) | 0.2 µg/mL (≈ 0.242 µM) | 0.78 µg/mL (≈ 0.942 µM) | 25 µg/mL (≈ 30.2 µM) | MIC (E. cloacae 1Y247): 3.13 µg/mL (≈ 3.78 µM); MIC (S. marcescens GN10857): 0.2 µg/mL (≈ 0.242 µM); MIC (E. cloacae 908RN; E. cloacae 908RN, Table 6): 0.78 µg/mL (≈ 0.942 µM); MIC (E. cloacae 908RN; E. colacae 908RN, Table 5): 0.78 µg/mL (≈ 0.942 µM); MIC (E. cloacae 1V25): 6.25 µg/mL (≈ 7.55 µM); MIC (C. freundii 5D60-1): 0.39 µg/mL (≈ 0.471 µM); MIC (E. cloacae 5D63-2): 0.2 µg/mL (≈ 0.242 µM); MIC (C. freundii 1R526): 0.1 µg/mL (≈ 0.121 µM) |
| Cc1nc2ncnn2c(SCC2=C(C(=O)O)N3C(=O)C(NC(=O)C(=NOC(C)(C)C(=O)NNC(=O)c4ccc(O)c(O)c4)c4csc(N)n4)C3SC2)c1C (centres unmarked) [Example 39] | 0.1 µg/mL (≈ 0.125 µM) | 0.2 µg/mL (≈ 0.251 µM) | 0.39 µg/mL (≈ 0.489 µM) | < 0.006 µg/mL | 0.39 µg/mL (≈ 0.489 µM) | < 0.006 µg/mL | < 0.006 µg/mL | 0.012 µg/mL (≈ 0.015 µM) | 0.2 µg/mL (≈ 0.251 µM) | 0.78 µg/mL (≈ 0.978 µM) | 0.39 µg/mL (≈ 0.489 µM) | 12.5 µg/mL (≈ 15.7 µM) | 0.78 µg/mL (≈ 0.978 µM) | 0.1 µg/mL (≈ 0.125 µM) | 3.13 µg/mL (≈ 3.92 µM) | 3.13 µg/mL (≈ 3.92 µM) | 0.1 µg/mL (≈ 0.125 µM) | 0.39 µg/mL (≈ 0.489 µM) | 1.56 µg/mL (≈ 1.96 µM) | 12.5 µg/mL (≈ 15.7 µM) | MIC (E. cloacae 1Y247): 1.56 µg/mL (≈ 1.96 µM); MIC (S. marcescens GN10857): 0.2 µg/mL (≈ 0.251 µM); MIC (E. cloacae 908RN; E. cloacae 908RN, Table 6): 3.13 µg/mL (≈ 3.92 µM); MIC (E. cloacae 908RN; E. colacae 908RN, Table 5): 1.56 µg/mL (≈ 1.96 µM); MIC (E. cloacae 1V25): 12.5 µg/mL (≈ 15.7 µM); MIC (C. freundii 5D60-1): 0.39 µg/mL (≈ 0.489 µM); MIC (E. cloacae 5D63-2): 0.2 µg/mL (≈ 0.251 µM); MIC (C. freundii 1R526): 0.1 µg/mL (≈ 0.125 µM) |
